Reference: patent US6756375B2, “10-Aryl-11h-benzo[b]fluorene derivatives and analogs for medicinal use” (Akzo Nobel N.V., priority 2000, dated 2004)

Target: human estrogen receptor β (hERβ) (Homo sapiens, UniProt Q92731)
Test: Antiestrogenic activity in the in vitro bioassay: recombinant CHO cells co-transfected with hERβ, rat oxytocin promoter and luciferase reporter gene
Assay type: cell-based
Details: potency ratio relative to standard ICI 164.384; inhibition of estradiol-induced luciferase transactivation via hERβ in CHO cells
Method: The estrogenic and antiestrogenic activity of compounds is determined in an in vitro bioassay with recombinant Chinese hamster ovary (CHO) cells stably co-transfected with the human estrogen receptor α (hERα) or β receptor (hERβ), the rat oxytocin promoter (RO) and the luciferase reporter gene (LUC). The estrogenic activity (potency ratio) of a test compound to stimulate the transactivation of the enzyme luciferase mediated via the estrogen receptors hERα or hERβ is compared with the standard estrogen estradiol. The antiestrogenic activity (potency ratio) of a test compound to inhibit the transactivation of the enzyme luciferase mediated via the estrogen receptors hERα or hERβ by the estrogen estradiol is compared with the standard ICI 164.384 (=(7α,17β)-N-butyl-3,17-dihydroxy-N-methylestra-1,3,5(10)-triene-7-undecanamide).

Chain of human estrogen receptor β (hERβ) (Q92731 whole entry): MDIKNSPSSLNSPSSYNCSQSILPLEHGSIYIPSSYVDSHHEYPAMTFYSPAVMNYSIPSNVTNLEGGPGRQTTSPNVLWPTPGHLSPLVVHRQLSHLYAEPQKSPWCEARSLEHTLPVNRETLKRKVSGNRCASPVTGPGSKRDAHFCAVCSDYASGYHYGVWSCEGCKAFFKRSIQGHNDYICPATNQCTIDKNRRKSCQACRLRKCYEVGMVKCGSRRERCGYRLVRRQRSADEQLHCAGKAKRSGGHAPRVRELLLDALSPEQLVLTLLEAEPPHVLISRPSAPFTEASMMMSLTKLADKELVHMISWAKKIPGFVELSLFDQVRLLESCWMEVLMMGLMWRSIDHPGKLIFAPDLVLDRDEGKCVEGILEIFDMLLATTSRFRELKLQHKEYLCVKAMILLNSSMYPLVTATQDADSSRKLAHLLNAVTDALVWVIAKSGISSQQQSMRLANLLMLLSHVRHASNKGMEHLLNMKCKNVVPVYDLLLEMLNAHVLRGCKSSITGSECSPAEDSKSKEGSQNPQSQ

SMILES	ERβ antagonism
Oc1ccc2c(c1)Cc1c-2cc2ccc(O)cc2c1-c1ccc(Cl)cc1 [Compound 5a]	+ (5 > 5% (relative to ICI): +)
Oc1ccc2c(c1)Cc1c-2cc2ccc(O)cc2c1-c1ccc2ccccc2c1 [Compound 5b]	+ (5 > 5% (relative to ICI): +)
COc1cccc(-c2c3c(cc4ccc(O)cc24)-c2ccc(O)cc2C3)c1 [Compound 5c]	+ (5 > 5% (relative to ICI): +)
Oc1ccc2c(c1)Cc1c-2cc2ccc(O)cc2c1-c1cccc(C(F)(F)F)c1 [Compound 5d]	+ (5 > 5% (relative to ICI): +)
Cc1ccc(-c2c3c(cc4ccc(O)cc24)-c2ccc(O)cc2C3)cc1 [Compound 5e]	++ (> 40%: ++)
Oc1ccc2c(c1)Cc1c-2cc2ccc(O)cc2c1-c1ccc(F)c(Cl)c1 [Compound 5f]	+ (5 > 5% (relative to ICI): +)
Oc1ccc2c(c1)Cc1c-2cc2ccc(O)cc2c1-c1ccc2c(c1)OCO2 [Compound 5g]	+ (5 > 5% (relative to ICI): +)
Oc1ccc2c(c1)Cc1c-2cc2ccc(O)cc2c1-c1ccc(-c2ccccc2)cc1 [Compound 5h]	+ (5 > 5% (relative to ICI): +)
Oc1ccc2c(c1)Cc1c-2cc2ccc(O)cc2c1-c1cccc(F)c1 [Compound 5j]	+ (5 > 5% (relative to ICI): +)
COc1ccc(-c2c3c(cc4ccc(O)cc24)-c2ccc(O)cc2C3)cc1 [Compound 5k]	+ (5 > 5% (relative to ICI): +)
Oc1ccc2c(c1)Cc1c-2cc2ccc(O)cc2c1-c1ccc(F)cc1 [Compound 5l]	++ (> 40%: ++)
Oc1ccc2c(c1)Cc1c-2cc2ccc(O)cc2c1-c1ccc(Cl)c(Cl)c1 [Compound 5m]	++ (> 40%: ++)
Oc1ccc2c(c1)Cc1c-2cc2ccc(O)cc2c1-c1cccc(Cl)c1 [Compound 5n]	+ (5 > 5% (relative to ICI): +)
Oc1ccc2c(c1)Cc1c-2cc2ccc(O)cc2c1-c1ccc(C(F)(F)F)cc1 [Compound 5o]	+ (5 > 5% (relative to ICI): +)
Cc1cccc(-c2c3c(cc4ccc(O)cc24)-c2ccc(O)cc2C3)c1 [Compound 5p]	+ (5 > 5% (relative to ICI): +)
CC(C)c1cccc(-c2c3c(cc4ccc(O)cc24)-c2ccc(O)cc2C3)c1 [Compound 5q]	+ (5 > 5% (relative to ICI): +)
Oc1ccc2c(c1)Cc1c-2cc2ccc(O)cc2c1-c1ccc(OC(F)(F)F)cc1 [Compound 5r]	++ (> 40%: ++)
Oc1ccc2c(c1)Cc1c-2cc2ccc(O)cc2c1-c1ccc(-c2ccccc2)c(F)c1 [Compound 5s]	+ (5 > 5% (relative to ICI): +)
Oc1ccc2c(c1)Cc1c-2cc2ccc(O)cc2c1-c1ccccc1C(F)(F)F [Compound 5u]	++ (> 40%: ++)
Oc1ccc2c(c1)Cc1c-2cc2ccc(O)cc2c1-c1ccccc1 [Compound 5v]	+ (5 > 5% (relative to ICI): +)
Oc1ccc2c(c1)Cc1c-2cc2ccc(O)cc2c1-c1ccc(OCCN2CCCCC2)cc1 [Compound 9]	++ (> 40%: ++)
